# Measured values published in ChEMBL document CHEMBL1141031, “Stereo-controlled synthesis of novel photoreactive gamma-secretase inhibitors” (Bioorg Med Chem Lett, 2009).
# Activity calls are given as the source filed them. The calls are words filed in the database; no cut-off is given here.
# Key:
# Gamma-secretase = assay: Inhibition of human gamma secretase assessed as effect on C100Flag substrate cleavage; type: protein-complex assay
# [1] = molecular target: Presenilin-1 (Homo sapiens) (UniProt P49768); assay: Binding affinity to presenilin-1 in UV irradiated human HeLa cells assessed as enzyme photolabeling at 10 uM by SDS-PAGE based photocross linking study; type: cell-based
# [2] = molecular target: Presenilin-1 (Homo sapiens) (UniProt P49768); assay: Binding affinity to presenilin-1 in UV irradiated human HeLa cells assessed as enzyme photolabeling at 10 uM in presence of 2 uM L-685,458 by SDS-PAGE based photocross linking study; type: cell-based
Structure (SMILES),IC50 (Gamma-secretase) [nM],Activity [1],Activity [2]
CC(C)C[C@H](NC(=O)[C@H](Cc1ccccc1)C[C@@H](O)[C@H](Cc1ccc(C(=O)c2ccccc2)cc1)NC(=O)OC(C)(C)C)C(=O)N[C@@H](Cc1ccccc1)C(=O)NCCCCCNC(=O)CCCCC1SC[C@H]2NC(=O)N[C@@H]12 (some centres undefined),0.6,Active,inactive
COC(=O)[C@H](Cc1ccccc1)NC(=O)[C@H](CC(C)C)NC(=O)[C@H](Cc1ccccc1)C[C@@H](O)[C@H](Cc1ccc(C(=O)c2ccccc2)cc1)NC(=O)OC(C)(C)C,0.7,–,–
